Experimental data reported in patent US11161839B2, “2-quinolone derived inhibitors of BCL6” (Cancer Research Technology Limited, priority 2017, dated 2021).

Target: human BCL6 BTB domain (Trx-6xHis-BCL6) (Homo sapiens (Human), UniProt P41182)
Assay: HTRF in vitro assay (BCL6 BTB domain / BCOR-AF633 peptide)
Type: binding
[1] = further generated data (Table 1b), 1 nM Trx-6xHis-BCL6, 0.5 nM anti-6xHis-Terbium cryptate
[2] = initially generated data (Table 1a), 10 nM Trx-6xHis-BCL6, 1 nM anti-6xHis-Terbium cryptate

Method: The % inhibition at each concentration was calculated by normalising FRET ratio to the appropriate high (DMSO with all reagents) and low (DMSO without BCL6) controls.

Compound | HTRF pIC50 [1] | HTRF pIC50 [2] | IC50 (further generated data (Table 1b), 1 nM Trx-6xHis-BCL6, 0.5 nM anti-6xHis-Terbium cryptate, read-out: HTRF pIC50 (converted)) [µM]
CC(CCO)Nc1nc(=O)n(C)c2ccc(Nc3ccnc(Cl)c3C#N)cc12 (centres unmarked) [Example 1k, 2-chloro-4-[[4-[(3-hydroxy-1-methyl-propyl)amino]-1-methyl-2-oxo-quinazolin-6-yl]amino]pyridine-3-carbonitrile] | 5.95 | 6.19 | 
CC(CO)Nc1nc(=O)n(C)c2ccc(Nc3ccnc(Cl)c3C#N)cc12 (centres unmarked) [Example 1l, 2-chloro-4-[[4-[(2-hydroxy-1-methyl-ethyl)amino]-1-methyl-2-oxo-quinazolin-6-yl]amino]pyridine-3-carbonitrile] | 5.98 | 6.18 | 
CCNc1cc(=O)n(CCOCCOC)c2ccc(Nc3ccnc(Cl)c3C#N)cc12 [Example 1o, 2-chloro-4-[[4-(ethylamino)-1-[2-(2-methoxyethoxy)ethyl]-2-oxo-6-quinolyl]amino]pyridine-3-carbonitrile] |  |  | 0.708
CC(Nc1cc(=O)n(C)c2ccc(Nc3ccnc(Cl)c3C#N)cc12)c1ccncn1 (centres unmarked) [Example 1q, 2-chloro-4-[[1-methyl-2-oxo-4-(1-pyrimidin-4-ylethylamino)-6-quinolyl]amino]pyridine-3-carbonitrile] | 6.29 | 6.10 | 
CCNc1cc(=O)n(CCN2C(=O)CCC2=O)c2ccc(Nc3ccnc(Cl)c3C#N)cc12 [Example 1r, 2-chloro-4-[[1-[2-(2,5-dioxopyrrolidin-1-yl)ethyl]-4-(ethylamino)-2-oxo-6-quinolyl]amino]pyridine-3-carbonitrile] | 6.25 | 6.05 | 
CC(Nc1cc(=O)n(C)c2ccc(Nc3ccnc(Cl)c3C#N)cc12)c1nccs1 (centres unmarked) [Example 1s, 2-chloro-4-[[1-methyl-2-oxo-4-(1-thiazol-2-ylethylamino)-6-quinolyl]amino]pyridine-3-carbonitrile] | 6.07 | 6.03 | 
CC(Nc1cc(=O)n(C)c2ccc(Nc3ccnc(Cl)c3C#N)cc12)c1cc[nH]n1 (centres unmarked) [Example 1t, 2-chloro-4-[[1-methyl-2-oxo-4-[1-(1H-pyrazol-3-yl)ethylamino]-6-quinolyl]amino]pyridine-3-carbonitrile] | 5.84 | 6.00 | 
CC(Nc1cc(=O)n(C)c2ccc(Nc3cc(C(=O)O)nc(Cl)c3C#N)cc12)C1CC1 (centres unmarked) [Example 2a, 6-Chloro-5-cyano-4-[[4-(1-cyclopropylethylamino)-1-methyl-2-oxo-6-quinolyl]amino]pyridine-2-carboxylic acid] | 6.85 | 6.78 | 
Cn1c(=O)cc(NC2CC2)c2cc(Nc3cc(C(=O)O)nc(Cl)c3C#N)ccc21 [Example 2b, 6-chloro-5-cyano-4-[[4-(cyclopropylamino)-1-methyl-2-oxo-6-quinolyl]amino]pyridine-2-carboxylic acid] | 6.55 | 6.41 | 
Cn1c(=O)cc(NC2(C)CC2)c2cc(Nc3cc(C(=O)O)nc(Cl)c3C#N)ccc21 [Example 2c, 6-chloro-5-cyano-4-[[1-methyl-4-[(1-methylcyclopropyl)amino]-2-oxo-6-quinolyl]amino]pyridine-2-carboxylic acid] | 6.38 | 6.36 | 
Cn1c(=O)cc(NC2(C)CCCC2)c2cc(Nc3cc(C(=O)O)nc(Cl)c3C#N)ccc21 [Example 2d, 6-chloro-5-cyano-4-[[1-methyl-4-[(1-methylcyclopentyl)amino]-2-oxo-6-quinolyl]amino]pyridine-2-carboxylic acid] | 6.65 | 6.51 | 
C[C@@H](Nc1cc(=O)n(C)c2ccc(Nc3ccnc(Cl)c3C#N)cc12)C(=O)NCCO [Example 3b, (R)-2-((6-((2-chloro-3-cyanopyridin-4-yl)amino)-1-methyl-2-oxo-1,2-dihydroquinolin-4-yl)amino)-N-(2-hydroxyethyl)propanamide] | 6.57 | 6.73 | 
Cc1n[nH]c(C(C)Nc2cc(=O)n(C)c3ccc(Nc4ccnc(Cl)c4C#N)cc23)n1 (centres unmarked) [Example 3c, 2-Chloro-4-((1-methyl-4-((1-(3-methyl-1H-1,2,4-triazol-5-yl)ethyl)amino)-2-oxo-1,2-dihydroquinolin-6-yl)amino)nicotinonitrile] | 6.50 | 6.65 | 
C[C@@H](Nc1cc(=O)n(C)c2ccc(Nc3ccnc(Cl)c3C#N)cc12)C(=O)NC1CCCC1 [Example 3d, (R)-2-((6-((2-Chloro-3-cyanopyridin-4-yl)amino)-1-methyl-2-oxo-1,2-dihydroquinolin-4-yl)amino)-N-cyclopentylpropanamide] | 6.61 | 6.62 | 
COCCNC(=O)[C@@H](C)Nc1cc(=O)n(C)c2ccc(Nc3ccnc(Cl)c3C#N)cc12 [Example 3e, (R)-2-((6-((2-chloro-3-cyanopyridin-4-yl)amino)-1-methyl-2-oxo-1,2-dihydroquinolin-4-yl)amino)-N-(2-methoxyethyl)propanamide] | 6.42 | 6.59 | 
C#CCCNC(=O)[C@@H](C)Nc1cc(=O)n(C)c2ccc(Nc3ccnc(Cl)c3C#N)cc12 [Example 3f, (R)-N-(But-3-yn-1-yl)-2-((6-((2-chloro-3-cyanopyridin-4-yl)amino)-1-methyl-2-oxo-1,2-dihydroquinolin-4-yl)amino)propanamide] | 6.71 | 6.48 | 
CCNC(=O)C(C)(C)Nc1cc(=O)n(C)c2ccc(Nc3ccnc(Cl)c3C#N)cc12 [Example 3h, 2-((6-((2-Chloro-3-cyanopyridin-4-yl)amino)-1-methyl-2-oxo-1,2-dihydroquinolin-4-yl)amino)-N-ethyl-2-methylpropanamide] | 6.41 | 6.40 | 
COC1CCC(NC(=O)[C@@H](C)Nc2cc(=O)n(C)c3ccc(Nc4ccnc(Cl)c4C#N)cc23)CC1 (stereo partly drawn) [Example 3i, (R)-2-((6-((2-Chloro-3-cyanopyridin-4-yl)amino)-1-methyl-2-oxo-1,2-dihydroquinolin-4-yl)amino)-N-(4-methoxycyclohexyl)propanamide] | 6.42 | 6.36 | 
C[C@H](CO)Nc1cc(=O)n(C)c2ccc(Nc3ccnc(Cl)c3C#N)cc12 [Example 3j, (R)-2-chloro-4-((4-((1-hydroxypropan-2-yl)amino)-1-methyl-2-oxo-1,2-dihydroquinolin-6-yl)amino)nicotinonitrile] | 6.14 | 6.05 | 
Cc1nnc(C(C)Nc2cc(=O)n(C)c3ccc(Nc4ccnc(Cl)c4C#N)cc23)o1 (centres unmarked) [Example 3l, 2-Chloro-4-((1-methyl-4-((1-(5-methyl-1,3,4-oxadiazol-2-yl)ethyl)amino)-2-oxo-1,2-dihydroquinolin-6-yl)amino)nicotinonitrile] | 5.93 | 6.16 | 
C[C@@H](Nc1cc(=O)n(C)c2ccc(Nc3ccnc(Cl)c3C#N)cc12)C(=O)NCCc1cnn(C)c1 [Example 3m, (R)-2-((6-((2-Chloro-3-cyanopyridin-4-yl)amino)-1-methyl-2-oxo-1,2-dihydroquinolin-4-yl)amino)-N-(2-(1-methyl-1H-pyrazol-4-yl)ethyl)propanamide] |  | 6.06 | 
C[C@@H](CCO)Nc1cc(=O)n(C)c2ccc(Nc3ccnc(Cl)c3C#N)cc12 [Example 3n, (S)-2-Chloro-4-((4-((4-hydroxybutan-2-yl)amino)-1-methyl-2-oxo-1,2-dihydroquinolin-6-yl)amino)nicotinonitrile] | 6.01 | 6.31 | 
CNC(=O)[C@@H](C)Nc1cc(=O)[nH]c2ccc(Nc3ccnc(Cl)c3C#N)cc12 [Example 3p, (R)-2-((6-((2-chloro-3-cyanopyridin-4-yl)amino)-2-oxo-1,2-dihydroquinolin-4-yl)amino)-N-methylpropanamide] | 6.61 | 6.61 | 
CCNc1cc(=O)n(C)c2ccc(Nc3cc(C(=O)O)nc(Cl)c3C#N)cc12 [Example 4, 6-Chloro-5-cyano-4-[[4-(ethylamino)-1-methyl-2-oxo-6-quinolyl]amino]pyridine-2-carboxylic acid] | 6.07 | 6.06 | 
CCNc1cc(=O)n(C)c2ccc(Nc3cc(C(=O)NC)nc(Cl)c3C#N)cc12 [Example 5, 6-Chloro-5-cyano-4-[[4-(ethylamino)-1-methyl-2-oxo-6-quinolyl]amino]-N-methyl-pyridine-2-carboxamide] | 6.43 | 6.21 | 
CC(Nc1cc(=O)n(C)c2ncc(Nc3ccnc(Cl)c3Cl)cc12)c1ncccn1 (centres unmarked) [Example 6e, 6-((2,3-dichloropyridin-4-yl)amino)-1-methyl-4-((1-(pyrimidin-2-yl)ethyl)amino)-1,8-naphthyridin-2(1H)-one] | 6.28 |  | 
C[C@@H](Nc1cc(=O)n(C)c2ncc(Nc3ccnc(Cl)c3Cl)cc12)C1CC1 [Example 6f, (R)-4-((1-cyclopropylethyl)amino)-6-((2,3-dichloropyridin-4-yl)amino)-1-methyl-1,8-naphthyridin-2(1H)-one] | 6.21 |  | 
C[C@@H]1CN(c2cc(Nc3ccc4c(c3)c(N[C@H](C)C3CC3)cc(=O)n4C)c(Cl)cn2)C[C@H](C)O1 [Example 6h, 6-((5-chloro-2-((2S,6R)-2,6-dimethylmorpholino)pyridin-4-yl)amino)-4-(((R)-1-cyclopropylethyl)amino)-1-methylquinolin-2(1H)-one] | 6.00 |  | 
C[C@@H](Nc1cc(=O)n(C)c2ccc(Nc3cc(N4CCC(C(=O)N(C)C)CC4)ncc3Cl)cc12)C1CC1 [Example 6i, (R)-1-(5-chloro-4-((4-((1-cyclopropylethyl)amino)-1-methyl-2-oxo-1,2-dihydroquinolin-6-yl)amino)pyridin-2-yl)-N,N-dimethylpiperidine-4-carboxamide] | 6.35 |  | 
CNC(=O)c1cc(Nc2ccc3c(c2)c(NC(C)(C)C)cc(=O)n3C)c(C#N)c(Cl)n1 [Example 7c, 4-((4-(tert-butylamino)-1-methyl-2-oxo-1,2-dihydroquinolin-6-yl)amino)-6-chloro-5-cyano-N-methylpicolinamide] | 6.33 |  | 
